Assay results from patent publication US12144795B2, “Cannabidiol compositions having modified cannabinoid profiles” (priority 2018, dated 2024).

Assays:
Format in all cases: physicochemical
[1] = Stability studies of CBD prepared via Protocol 3 (crude, pure, 2x recrystallized; 5° C., 25° C./60% RH, 40° C./75% RH)
[2] = Cooling crystallization, XRPD before and after AAC
Method: Cooling crystallizations were performed by preparing clear solutions of CBD with a maximum concentration of approximately 60 mg/mL. The solutions were slowly cooled to 0° C. and kept at this temperature for 48 hours. Precipitated solids were collected, dried under ambient conditions, and analyzed by XRPD. If no solids had precipitated, the mother liquors were allowed to slowly evaporate and the remaining solids were analyzed by XRPD. All solids were exposed to accelerated aging conditions for 48 hours and analyzed again by XRPD. Cannabidiol precipitated upon cooling from pentane and heptane. […] When no XRPD record was generated, the field is defined as “Not Applicable” (N/A).

[3] = Vapor-diffusion-into-solution crystallization, solid form after evaporation
Description: The open vials were placed in a larger container with anti-solvent and the vapors were allowed to diffuse into the cannabidiol solution for two weeks. The effect of the anti-solvent, however, was too low to induce any precipitation of cannabidiol and, therefore, it was decided to evaporate the mother liquors and analyze the remaining solids. Crystalline solid was only found after evaporation of the Toluene/2,2,4-Trimethylepentane solution.

[4] = Crash cooling crystallization, XRPD before and after AAC; settings: for Dissolved at start / Solids after T profile / Solid form by HT-XRPD Evaporation of ML Before: 50 mg/mL
Method: As a variation on the above cooling crystallization experiments, several crash cooling crystallization were performed. In order to modulate the solubility of cannabidiol, crash cooling experiments were performed in solvent mixtures. Clear solutions of 50 mg/mL of cannabidiol were prepared in solvent mixtures and rapidly cooled in an ice bath. Vials were then placed at −20° C. for 48 hours. Precipitated solids and mother liquors were treated as described above for the ordinary cooling crystallization experiments. Only from heptane/pentane cooling did there result in the precipitation of a solid. […] When no XRPD record was generated, the field is defined as “Not Applicable” (N/A) in Table 29.

[5] = solvent 1,4-Dioxane, anti-solvent 2,2,4-Trimethylpentane
[6] = solvent 1,4-Dioxane, anti-solvent Water
[7] = solvent 2-Methoxyethanol, anti-solvent 2,2,4-Trimethylpentane
[8] = solvent 4-methyl-2-pentanone, anti-solvent 2,2,4-Trimethylpentane
[9] = solvent Acetonitrile, anti-solvent Water
[10] = solvent Ethyl acetate, anti-solvent 2,2,4-Trimethylpentane
[11] = solvent Isobutanol, anti-solvent Water
[12] = solvent Isopropanol, anti-solvent Water
[13] = solvent Tetrahydrofuran, anti-solvent Water

C=C(C)[C@@H]1CCC(C)=C[C@H]1c1c(O)cc(CCCCC)cc1O [CBD, (1′R,2′R)-5′-methyl-4-pentyl-2′-(prop-1-en-2-yl)-1′,2′,3′,4′-tetrahydro-[1,1′-biphenyl]-2,6-diol]
Hygroscopicity [1]: not hygroscopic
Effect of accelerated aging conditions ([2]; AAC for 48 hours): no effect on the crystallinity
XRPD of solids precipitated upon cooling ([2]; from pentane and heptane, cooled to 0° C., 48 hours): identical to starting material Form A
Dissolved at initial T? ([2]; solvent 1,2-Dimethoxyethane): Yes
Solids after T profile ([2]; solvent 1,2-Dimethoxyethane): No
Dissolved at initial T? ([2]; solvent 1,4-Dioxane): Yes
Solids after T profile ([2]; solvent 1,4-Dioxane): No
Dissolved at initial T? ([2]; solvent 2,2,4-Trimethylpentane): No
Solids after T profile ([2]; solvent 2,2,4-Trimethylpentane): No
Dissolved at initial T? ([2]; solvent Acetone): Yes
Form by HT-XRPD Dry solids ([2]; solvent Acetone): Oily
Solids after T profile ([2]; solvent Acetone): No
Dissolved at initial T? ([2]; solvent Acetonitrile): Yes
Form by HT-XRPD Dry solids ([2]; solvent Acetonitrile): Oily
Solids after T profile ([2]; solvent Acetonitrile): No
Dissolved at initial T? ([2]; solvent Chloroform): Yes
Form by HT-XRPD Dry solids ([2]; solvent Chloroform): Oily
Solids after T profile ([2]; solvent Chloroform): No
Dissolved at initial T? ([2]; solvent Cyclohexane): Yes
Solids after T profile ([2]; solvent Cyclohexane): No
Dissolved at initial T? ([2]; solvent Diethylene glycol): Yes
Form by HT-XRPD Dry solids ([2]; solvent Diethylene glycol): Oily
Solids after T profile ([2]; solvent Diethylene glycol): No
Dissolved at initial T? ([2]; solvent Ethanol): Yes
Solids after T profile ([2]; solvent Ethanol): No
Dissolved at initial T? ([2]; solvent Ethyl acetate): Yes
Form by HT-XRPD Dry solids ([2]; solvent Ethyl acetate): Oily
Solids after T profile ([2]; solvent Ethyl acetate): No
Dissolved at initial T? ([2]; solvent Heptane): Yes
Form by HT-XRPD Dry solids ([2]; solvent Heptane): Oily
Solids after T profile ([2]; solvent Heptane): No
Dissolved at initial T? ([2]; solvent Hexane): No
Solids after T profile ([2]; solvent Hexane): Yes
Dissolved at initial T? ([2]; solvent Pentane): No
Solids after T profile ([2]; solvent Pentane): Yes
Dissolved at initial T? ([2]; solvent Tetrahydrofuran): Yes
Form by HT-XRPD Dry solids ([2]; solvent Tetrahydrofuran): Oily
Solids after T profile ([2]; solvent Tetrahydrofuran): No
Dissolved at initial T? ([2]; solvent Water): No
Form by HT-XRPD Dry solids ([2]; solvent Water): Low yield
Solids after T profile ([2]; solvent Water): No
Effect of accelerated aging conditions [3]: no effect on the physical appearance
XRPD of solid after evaporation ([3]; Toluene/2,2,4-Trimethylepentane solution): Form A
Precipitation? [3, 5]: No
Solid form after evaporation After AAC [3, 5]: Oil
Solid form after evaporation Before AAC [3, 5]: Oil
Precipitation? [3, 6]: No
Solid form after evaporation After AAC [3, 6]: Oil
Solid form after evaporation Before AAC [3, 6]: Oil
Precipitation? [3, 7]: No
Solid form after evaporation After AAC [3, 7]: Oil
Solid form after evaporation Before AAC [3, 7]: Oil
Precipitation? [3, 8]: No
Solid form after evaporation After AAC [3, 8]: Oil
Solid form after evaporation Before AAC [3, 8]: Oil
Precipitation? [3, 9]: No
Solid form after evaporation After AAC [3, 9]: Oil
Solid form after evaporation Before AAC [3, 9]: Oil
Precipitation? [3, 10]: No
Solid form after evaporation After AAC [3, 10]: Oil
Solid form after evaporation Before AAC [3, 10]: Oil
Precipitation? [3, 11]: No
Solid form after evaporation After AAC [3, 11]: Oil
Solid form after evaporation Before AAC [3, 11]: Oil
Precipitation? [3, 12]: No
Solid form after evaporation After AAC [3, 12]: Oil
Solid form after evaporation Before AAC [3, 12]: Oil
Precipitation? [3, 13]: No
Solid form after evaporation After AAC [3, 13]: Oil
Solid form after evaporation Before AAC [3, 13]: Oil
Precipitation? ([3]; solvent Toluene, anti-solvent 2,2,4-Trimethylpentane): No
Dissolved at start ([4]; 1,4-Dioxane/Water (80/20)): Yes
Solids after T profile ([4]; 1,4-Dioxane/Water (80/20)): No
Effect of accelerated aging conditions ([4]; 40° C./75% RH for two days): no effect on the physical appearance
Dissolved at start ([4]; Acetone/2,2,4-Trimethylpentane): Yes
Solids after T profile ([4]; Acetone/2,2,4-Trimethylpentane): No
Dissolved at start ([4]; Acetone/Water (80/20)): Yes
Solid form by HT-XRPD Evaporation of ML Before ([4]; Acetone/Water (80/20)): Oily
Solids after T profile ([4]; Acetone/Water (80/20)): No
Dissolved at start ([4]; Acetonitrile/Water (80/20)): Yes
Solids after T profile ([4]; Acetonitrile/Water (80/20)): No
Dissolved at start ([4]; Chloroform/Hexane (50/50)): Yes
Solids after T profile ([4]; Chloroform/Hexane (50/50)): No
Dissolved at start ([4]; Ethanol/2,2,4-Trimethylpentane): Yes
Solids after T profile ([4]; Ethanol/2,2,4-Trimethylpentane): No
Dissolved at start ([4]; Ethyl formate/Decane): Yes
Solid form by HT-XRPD Evaporation of ML Before ([4]; Ethyl formate/Decane): Oily
Solids after T profile ([4]; Ethyl formate/Decane): No
Dissolved at start ([4]; Heptane/Pentane (50/50)): Yes
Solids after T profile ([4]; Heptane/Pentane (50/50)): Yes
Dissolved at start ([4]; Isopropanol/Decane (50/50)): Yes
Solids after T profile ([4]; Isopropanol/Decane (50/50)): No
Dissolved at start ([4]; Tetrahydrofuran/Water (80/20)): Yes
Solid form by HT-XRPD Evaporation of ML Before ([4]; Tetrahydrofuran/Water (80/20)): Oily
Solids after T profile ([4]; Tetrahydrofuran/Water (80/20)): No
Polymorphic form of precipitated solid ([4]; heptane/pentane, crash cooling, −20° C. for 48 hours): same polymorphic form as the starting material Form A
